The record followed here is BindingDB's records for doi:10.1016/S0960-894X(00)80623-X (1992).

The target of this assay is HMG-CoA reductase (Bos taurus). Description: Compound was evaluated for inhibitory activity against HMG-CoA reductase in bovine ocular cell preparation.

Molecules are shown by their SMILES.

In turn, `Cn1nnnc1C(/C=C/[C@@H](O)C[C@@H](O)CC(=O)O)=C(c1ccc(F)cc1)c1ccc(F)cc1` came in with an IC50 of 3000 nM.

Usually IC50 stands for the midpoint of a concentration-inhibition curve. A higher IC50 goes with weaker potency.
